Experimental findings from ChEMBL document CHEMBL5665443, “Enzyme Inhibitor Single Concentration assay results for EUbOPEN Chemogenomics Library” (2024) are described below.

Where a SMILES comes first, the peptide text is derived from it. [ ]: non-standard residue; d: D form. The star is where a group is joined. dPhe(4-NHCONH2) = NC(=O)Nc1ccc(C[C@@H](N)C(=O)O)cc1; Dihydroorotyl(S) = O=C1C[C@@H](C(=O)*)NC(=O)N1; dPhe(4-Cl) = N[C@H](Cc1ccc(Cl)cc1)C(=O)O; Phe(4-NH2) = Nc1ccc(C[C@H](N)C(=O)O)cc1; d2Nal = N[C@H](Cc1ccc2ccccc2c1)C(=O)O; Lys(iPr) = CC(C)NCCCC[C@H](N)C(=O)O; d3Pal = N[C@H](Cc1cccnc1)C(=O)O

Assay [1] addresses T1, Endonuclease III-like protein 1 (Homo sapiens) (UniProt P78549).
T1 sequence (whole entry): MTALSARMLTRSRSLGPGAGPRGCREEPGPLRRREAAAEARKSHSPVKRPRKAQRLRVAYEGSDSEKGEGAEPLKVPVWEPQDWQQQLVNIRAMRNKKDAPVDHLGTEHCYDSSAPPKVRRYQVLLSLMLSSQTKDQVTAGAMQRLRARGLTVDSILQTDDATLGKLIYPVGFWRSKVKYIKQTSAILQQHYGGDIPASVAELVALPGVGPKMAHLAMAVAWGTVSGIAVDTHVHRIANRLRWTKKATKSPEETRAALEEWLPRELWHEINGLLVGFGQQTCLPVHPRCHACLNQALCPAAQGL
The conditions noted are these: Compound Concentration 10.0 uM, Hit No.
Description: Inhibition of NTHL1 by quantifying inhibition of NTHL1-mediated cleavage and dissociation of quenched duplex DNA oligonucleotides, measured as fluorescence at 594 nm.

Assay [2] addresses G/T mismatch-specific thymine DNA glycosylase (Homo sapiens) (UniProt Q13569). The conditions noted are these: Compound Concentration 10.0 uM, Hit No.
Description: Inhibition of TDG by quantifying inhibition of TDG-mediated cleavage and dissociation of quenched duplex DNA oligonucleotides, measured as fluorescence at 594 nm. To generate a functional strand incision and increase turn-over this assay is coupled to APE1.
Assay [3] addresses T2, Single-strand selective monofunctional uracil DNA glycosylase (Homo sapiens) (UniProt Q53HV7).
T2 sequence (whole entry): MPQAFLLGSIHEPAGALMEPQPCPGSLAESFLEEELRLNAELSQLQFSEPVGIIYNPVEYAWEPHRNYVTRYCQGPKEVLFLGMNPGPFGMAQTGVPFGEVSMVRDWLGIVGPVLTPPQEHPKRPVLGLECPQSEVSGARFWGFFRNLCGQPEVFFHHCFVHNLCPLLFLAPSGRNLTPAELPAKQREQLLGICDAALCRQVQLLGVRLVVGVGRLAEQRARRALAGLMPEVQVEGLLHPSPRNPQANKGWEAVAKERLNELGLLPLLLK
The conditions noted are these: Compound Concentration 10.0 uM.
Description: Inhibition of SMUG1 by quantifying inhibition of SMUG1-mediated cleavage and dissociation of quenched duplex DNA oligonucleotides, measured as fluorescence at 594 nm. To generate a functional strand incision and increase turn-over this assay is coupled to APE1.

The target of assay [4] is N-glycosylase/DNA lyase (Homo sapiens) (UniProt O15527). The conditions noted are these: Compound Concentration 10.0 uM.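 Also: OGG1 cleavage of a quenched duplex DNA oligonucleotide, coupled to APE1 for strand incision, read as fluorescence at 594 nm.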
Chain of N-glycosylase/DNA lyase (Homo sapiens) (O15527 whole entry): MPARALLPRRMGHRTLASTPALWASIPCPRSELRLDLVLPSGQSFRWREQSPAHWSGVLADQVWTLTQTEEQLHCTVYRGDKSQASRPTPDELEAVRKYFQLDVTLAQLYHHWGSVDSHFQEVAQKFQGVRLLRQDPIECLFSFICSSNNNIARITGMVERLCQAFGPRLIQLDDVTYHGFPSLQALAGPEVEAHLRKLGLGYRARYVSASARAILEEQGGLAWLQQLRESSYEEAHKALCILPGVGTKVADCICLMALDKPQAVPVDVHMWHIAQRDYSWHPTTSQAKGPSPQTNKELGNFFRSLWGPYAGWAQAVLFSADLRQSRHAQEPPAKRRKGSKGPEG
Description: Inhibition of OGG1 by quantifying inhibition of OGG1-mediated cleavage and dissociation of quenched duplex DNA oligonucleotides, measured as fluorescence at 594 nm. To generate a functional strand incision and increase turn-over this assay is coupled to APE1.
Assay [5] has as its target T3, Endonuclease 8-like 2 (Homo sapiens) (UniProt Q969S2).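 Also: fluorescence at 594 nm reports NEIL2 cutting and release of a quenched double-stranded DNA oligo substrate, reduced signal read as inhibition.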
T3 sequence (whole entry): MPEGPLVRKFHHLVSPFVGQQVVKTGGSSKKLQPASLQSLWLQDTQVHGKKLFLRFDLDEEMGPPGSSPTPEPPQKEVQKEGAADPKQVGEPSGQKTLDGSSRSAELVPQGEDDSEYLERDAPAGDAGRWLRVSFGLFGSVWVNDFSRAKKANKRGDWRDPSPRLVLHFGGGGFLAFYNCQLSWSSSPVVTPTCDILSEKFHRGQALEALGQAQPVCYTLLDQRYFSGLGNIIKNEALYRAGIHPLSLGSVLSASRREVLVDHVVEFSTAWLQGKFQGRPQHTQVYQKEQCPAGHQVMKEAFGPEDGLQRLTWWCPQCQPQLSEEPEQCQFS
The conditions noted are these: Compound Concentration 10.0 uM, Hit No.
Description: Inhibition of NEIL2 by quantifying inhibition of NEIL2-mediated cleavage and dissociation of quenched duplex DNA oligonucleotides, measured as fluorescence at 594 nm.

In assay [6] the target is DNA-3-methyladenine glycosylase (Homo sapiens) (UniProt P29372). The conditions noted are these: Compound Concentration 10.0 uM, Hit No.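 Also: enzyme assay where MPG cuts a quenched duplex DNA oligonucleotide probe, paired with APE1 for strand incision and turnover, read as fluorescence at 594 nm.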
Chain of DNA-3-methyladenine glycosylase (Homo sapiens) (P29372 whole entry): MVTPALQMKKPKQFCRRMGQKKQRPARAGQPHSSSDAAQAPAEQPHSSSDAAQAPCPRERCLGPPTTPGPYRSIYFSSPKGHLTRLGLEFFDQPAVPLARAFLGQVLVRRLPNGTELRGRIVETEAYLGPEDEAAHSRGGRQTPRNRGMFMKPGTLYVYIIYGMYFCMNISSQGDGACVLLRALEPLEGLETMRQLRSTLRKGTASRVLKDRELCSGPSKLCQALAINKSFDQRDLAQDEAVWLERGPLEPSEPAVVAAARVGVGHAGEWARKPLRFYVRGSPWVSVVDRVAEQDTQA
Description: Inhibition of MPG by quantifying inhibition of MPG-mediated cleavage and dissociation of quenched duplex DNA oligonucleotides, measured as fluorescence at 594 nm. To generate a functional strand incision and increase turn-over this assay is coupled to APE1.
Assay [7] deals with Uracil-DNA glycosylase (Homo sapiens) (UniProt P13051). To be noted: Compound Concentration 10.0 uM.
Chain of Uracil-DNA glycosylase (Homo sapiens) (P13051 whole entry, the tested form may be a part): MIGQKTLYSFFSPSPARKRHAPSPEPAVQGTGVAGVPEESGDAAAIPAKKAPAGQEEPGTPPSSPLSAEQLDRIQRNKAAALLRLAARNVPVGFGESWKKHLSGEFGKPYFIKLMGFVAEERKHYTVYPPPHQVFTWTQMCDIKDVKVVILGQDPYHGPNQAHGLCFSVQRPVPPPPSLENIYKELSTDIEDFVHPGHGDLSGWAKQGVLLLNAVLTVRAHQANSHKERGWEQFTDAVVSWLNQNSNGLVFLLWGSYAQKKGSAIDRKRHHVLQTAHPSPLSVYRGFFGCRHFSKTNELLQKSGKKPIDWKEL
Description: Inhibition of UNG by quantifying inhibition of UNG-mediated cleavage and dissociation of quenched duplex DNA oligonucleotides, measured as fluorescence at 594 nm. To generate a functional strand incision and increase turn-over this assay is coupled to APE1.
The target of assay [8] is Methyl-CpG-binding domain protein 4 (Homo sapiens) (UniProt O95243). The conditions noted are these: Compound Concentration 10.0 uM, Hit No.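 Also: MBD4 activity read as fluorescence at 594 nm from cleavage and release of a quenched duplex DNA oligonucleotide, with APE1 coupled to incise the strand and raise turnover.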
Chain of Methyl-CpG-binding domain protein 4 (Homo sapiens) (O95243 whole entry, the tested form may be a part): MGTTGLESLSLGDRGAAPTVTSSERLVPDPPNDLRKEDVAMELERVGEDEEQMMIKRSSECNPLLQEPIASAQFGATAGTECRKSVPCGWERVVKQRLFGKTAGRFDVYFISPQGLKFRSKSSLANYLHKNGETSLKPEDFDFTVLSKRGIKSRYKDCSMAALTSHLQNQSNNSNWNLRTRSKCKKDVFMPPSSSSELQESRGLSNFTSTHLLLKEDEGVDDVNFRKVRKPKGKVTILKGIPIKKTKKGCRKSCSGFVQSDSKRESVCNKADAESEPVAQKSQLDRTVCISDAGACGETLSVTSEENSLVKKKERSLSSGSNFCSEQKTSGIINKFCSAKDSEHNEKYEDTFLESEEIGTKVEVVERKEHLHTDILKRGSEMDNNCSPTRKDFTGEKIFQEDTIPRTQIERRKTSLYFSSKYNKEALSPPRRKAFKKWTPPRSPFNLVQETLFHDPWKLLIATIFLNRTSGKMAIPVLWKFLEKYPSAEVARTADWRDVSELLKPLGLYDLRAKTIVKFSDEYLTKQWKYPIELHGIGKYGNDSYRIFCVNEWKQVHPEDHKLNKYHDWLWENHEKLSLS
Description: Inhibition of MBD4 by quantifying inhibition of MBD4-mediated cleavage and dissociation of quenched duplex DNA oligonucleotides, measured as fluorescence at 594 nm. To generate a functional strand incision and increase turn-over this assay is coupled to APE1.
In assay [9] the target is Endonuclease 8-like 1 (Homo sapiens) (UniProt Q96FI4). The conditions noted are these: Compound Concentration 10.0 uM, Hit No.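 Also: fluorescence at 594 nm from quenched duplex DNA oligonucleotides released by NEIL1 cleavage and strand separation, reported as reduction of this enzyme activity.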
Chain of Endonuclease 8-like 1 (Homo sapiens) (Q96FI4 whole entry): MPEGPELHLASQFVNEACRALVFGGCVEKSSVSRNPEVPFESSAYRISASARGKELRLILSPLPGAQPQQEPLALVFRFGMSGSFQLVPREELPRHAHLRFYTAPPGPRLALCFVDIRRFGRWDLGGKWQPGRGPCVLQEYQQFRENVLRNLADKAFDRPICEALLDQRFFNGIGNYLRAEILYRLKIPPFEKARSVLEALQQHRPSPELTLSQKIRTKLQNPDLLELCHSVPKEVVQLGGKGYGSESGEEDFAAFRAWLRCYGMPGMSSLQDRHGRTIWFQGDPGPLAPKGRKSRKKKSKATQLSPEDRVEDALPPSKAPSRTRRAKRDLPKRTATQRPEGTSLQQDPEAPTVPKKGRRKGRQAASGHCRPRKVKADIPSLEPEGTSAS
Description: Inhibition of NEIL1 by quantifying inhibition of NEIL1-mediated cleavage and dissociation of quenched duplex DNA oligonucleotides, measured as fluorescence at 594 nm.

Chain of G/T mismatch-specific thymine DNA glycosylase (Homo sapiens) (Q13569 whole entry): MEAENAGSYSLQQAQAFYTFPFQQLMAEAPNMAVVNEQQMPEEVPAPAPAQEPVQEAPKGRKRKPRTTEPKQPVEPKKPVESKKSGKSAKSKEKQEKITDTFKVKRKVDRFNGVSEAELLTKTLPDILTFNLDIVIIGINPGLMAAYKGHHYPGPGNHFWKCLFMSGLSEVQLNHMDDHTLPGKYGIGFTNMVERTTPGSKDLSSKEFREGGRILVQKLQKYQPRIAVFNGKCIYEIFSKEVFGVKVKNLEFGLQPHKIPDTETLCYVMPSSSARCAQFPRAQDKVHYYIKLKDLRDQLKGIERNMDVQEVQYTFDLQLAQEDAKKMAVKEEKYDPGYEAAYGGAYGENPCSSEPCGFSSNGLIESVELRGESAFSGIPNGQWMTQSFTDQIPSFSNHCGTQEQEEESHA

A word on the inhibition: it is the relative decrease from the control value, in per cent. Take `CC(=O)N[C@H](Cc1ccc2ccccc2c1)C(=O)N[C@H](Cc1ccc(Cl)cc1)C(=O)N[C@H](Cc1cccnc1)C(=O)N[C@@H](CO)C(=O)N[C@@H](Cc1ccc(NC(=O)[C@@H]2CC(=O)NC(=O)N2)cc1)C(=O)N[C@H](Cc1ccc(NC(N)=O)cc1)C(=O)N[C@@H](CC(C)C)C(=O)N[C@@H](CCCCNC(C)C)C(=O)N1CCC[C@H]1C(=O)N[C@H](C)C(N)=O` (Ac-[d2Nal][dPhe(4-Cl)][d3Pal]S[Phe(4-NH2)](Dihydroorotyl(S))[dPhe(4-NHCONH2)]L[Lys(iPr)]P[dA]-NH2): the inhibition in assay [1] turned out to be 7.79%; in [2], 56.9%; in [3] (Hit Yes), 53.4%; in assay [4] (Hit Yes), 98.4%; in assay [5] it was 25.7%; in [6] it was 22.6%. For the same compound, the inhibition in [7] (Hit Yes) is 86.3%.
In the case of `CN1CCC(=C2c3ccccc3CC(=O)c3sccc32)CC1`, the inhibition in [1] is -2.47%; in assay [2], 2.08%; in assay [8], -9.08%; in assay [3] (Hit No) it was -4.83%; in [4] (Hit No), -5.18%; in assay [5], 2.26%. For the same compound, the inhibition in assay [6] is -7.46%; in assay [9], 8.25%.
Take `Cc1cc(-c2nncc3c(C(C)(C)C)c(OCc4ncnn4C)nn23)no1`: the inhibition was 1.39% in assay [1]; -4.49% in assay [2]; -4.07% in [8]; -0.184% in assay [3] (Hit No); -4.17% in [5]; -9.01% in assay [6]. The results for the inhibition in [7] (Hit No) and in assay [9] were -3.18% and -1.32%, respectively.
In the case of `Cc1cc(NC(=O)Nc2ccccc2)n(-c2ccccc2)n1`, the inhibition in [1] was determined as 10.5%; in assay [2] it was 5.78%; in [8] it was 0.993%; in [3] (Hit No), 0.777%; in assay [5], 7.29%; in [6] it was 3.86%. The inhibition in assay [7] (Hit No) amounted to 1.74%; in assay [9] it was 1.64%.
`COc1ccc(CCN(C)CCCC(C#N)(c2cc(OC)c(OC)c(OC)c2)C(C)C)cc1OC` (stereo not given): the inhibition was 3.04% in [1]; -7.93% in assay [2]; -0.579% in assay [3] (Hit No); -7.76% in [4] (Hit No); 2.71% in [5]; -3.7% in assay [6]. Besides, the inhibition in assay [7] (Hit No) is -3.3%; in assay [9] it was 5.05%.
Regarding `CCN(CC)CCCCC1CCN(CC(=O)N2c3ccccc3C(=O)Nc3cccnc32)CC1`, the inhibition in assay [1] was 12.2%; in [2], 10.1%; in [8], -4.84%; in assay [3] (Hit No) it was 1.37%; in assay [4] (Hit No) it was -2.09%; in assay [5], 12.7%. The inhibition in assay [6] is -8.23%; in assay [9] it was -7.47%.
With `c1nc(CC2CCNCC2)c[nH]1`, the inhibition is 7.05% in [1]; 10.2% in [2]; -3.22% in assay [8]; -4.12% in [4] (Hit No); -0.983% in [5]; -7.11% in [6]. Besides, in [9], the inhibition came out at 7.21%.
For `CNc1nc(NCc2ccc(NS(C)(=O)=O)cc2Cl)cc(-c2ccccn2)n1`, the inhibition in assay [1] is -9.07%; in assay [2], 18.1%; in [3] (Hit No), 11.2%; in assay [4] (Hit No) it was 15%; in assay [5], 7.25%; in [6], -5.26%. Moreover, the inhibition is -9.82% in assay [7] (Hit No) and 3.5% in assay [9].
Consider `O=C1CSC(=O)N1C(CCc1ccncc1)COc1ccc(-c2cccc([N+](=O)[O-])c2)cc1` (stereo not given), for which the inhibition is 17.1% in assay [1]; -8.91% in [2]; 6.99% in assay [3] (Hit No); -1.32% in [4] (Hit No); 3.73% in [5]; -5.43% in assay [6]. In addition, the inhibition is -2.95% in assay [7] (Hit No) and 2.68% in assay [9].
Regarding `COc1ccccc1-n1nc(C2CC(C)(C)OC(C)(C)C2)cc1-c1ccc(Cl)cc1`, the inhibition is 12.1% in assay [1]; -6.29% in [2]; -1.99% in assay [8]; -4.68% in assay [5]; -7.01% in assay [6]; -3.03% in assay [7] (Hit No). The inhibition in assay [9] came out at 11.3%.
For the compound `Cc1nnsc1C(=O)Nc1ccc(-n2nc(C(F)(F)F)cc2C(F)(F)F)cc1`, the inhibition is 14.6% in [1]; 15.8% in assay [3] (Hit No); 15.7% in [4] (Hit No); 0.414% in assay [5]; -1.63% in assay [6]; -0.15% in [7] (Hit No). Further, in assay [9], the inhibition was 0.306%.
Take `CCCN1CCO[C@H]2c3cc(O)ccc3OC[C@@H]21`: the inhibition in assay [1] was 7.05%; in assay [2], -3.98%; in [8], -3.57%; in assay [4] (Hit No), -4.1%; in assay [5], -7.97%; in assay [6], 3.27%. In addition, in assay [9], the inhibition was determined as 8.1%.
In the case of `COC1CCN(c2cccc(-c3cc(NC(C)=O)nc(-n4nc(C)cc4C)n3)n2)CC1`, the inhibition was 12.2% in assay [1]; -3.39% in assay [2]; -4.26% in [8]; -4.31% in assay [4] (Hit No); 2.26% in assay [5]; 6.5% in [6].
`C[C@H](N)Cn1ccc2cc(F)c(Cl)cc21`: the inhibition in [1] was 6.35%; in assay [2], -0.256%; in assay [8], 4.93%; in [6], -5.64%; in assay [7] (Hit No) it was -6.21%.
For the compound `N#Cc1c[nH]c2c(C(=O)N3CCN(CCc4ccc(F)cc4)CC3)cccc12`, the inhibition in assay [1] is -5.41%; in [3] (Hit No) it was -8.12%; in assay [4] (Hit No), -8.41%; in assay [5], -4.73%; in [6], -7.3%; in [7] (Hit No), -9.6%.
On to `O=C1NCCc2c(OCCCCN3CCCCC3)cccc21`, for which the inhibition is 23.7% in assay [1]; -4.06% in [2]; 2.31% in [8]; -7.4% in [4] (Hit No); 3.98% in [5]; -7.35% in assay [6]. Moreover, the inhibition is -4.57% in assay [7] (Hit No) and 5.05% in assay [9].
Regarding `O=C(N[C@H]1CN2CCC1CC2)c1ccc(Cl)cc1`, the inhibition in [1] is 15.4%; in [2], 21.4%; in [8], 12.6%; in assay [3] (Hit No), 3.71%; in assay [5], 3.98%; in [6] it was -7.18%. In addition, the inhibition in assay [7] (Hit No) was -1.13%; in assay [9], 1.79%.
With `CC1(C)CC(CN2CCC(F)(CNC(=O)c3cc(Cl)cc(Cl)c3)CC2)CCO1` (stereo not given), the inhibition was -3.56% in assay [1]; 12.8% in assay [2]; 12.4% in assay [8]; 8.24% in [3] (Hit No); 6.78% in assay [5]; 9.94% in assay [6]. In addition, the inhibition was -1.24% in [7] (Hit No) and 6.23% in assay [9].
In the case of `O=S1(=O)c2cccc3cccc(c23)N1CCCN1CCN(c2ccc(F)cc2)CC1`, the inhibition was 18.1% in assay [1]; 19% in assay [2]; 12.8% in assay [3] (Hit No); 7.99% in assay [4] (Hit No); -0.483% in assay [5]; -8.54% in [6]. The inhibition in assay [7] (Hit No) was -2.78%; in assay [9], -4.8%.
For `O=C(NCc1cccnc1OCC(F)(F)F)c1cncc(-c2ccc(Cl)cc2)c1`, the inhibition in assay [1] is 0.568%; in assay [2], 3.98%; in assay [8], -9.96%; in assay [3] (Hit No), -3.23%; in [5], -0.35%; in assay [6], 2%. Besides, the inhibition in assay [7] (Hit No) is -5.85%; in assay [9] it was -4.73%.
For the compound `CC[C@@H](C[C@H]1COC(N)=N1)c1ccccc1`, the inhibition is 17.9% in [1]; 11.1% in [2]; 4.05% in [8]; -1.88% in [5]; -5.21% in assay [6]; -3.91% in assay [7] (Hit No). Moreover, the inhibition in assay [9] amounted to 8.31%.
